Measured values taken from paper PMC6225339 (Journal of the American Chemical Society, 2018).
Counter-ions that a name gives are not always drawn.

What was measured:
[1] = system: H9C2 cardiomyocytes; assay type: cell-based, rat
[2] = system: H9C2 cardiomyocytes; settings: Dox only, 24 h, CCK-8

SMILES | protection of H9C2 viability against Dox (control studies) [1] | concentration inducing cytotoxicity in H9C2 cardiomyocytes [2] [µM]
C1COCCN1.COc1ccc(P(=S)(S)N2CCOCC2)cc1 (stereo not drawn) [GYY4137] | no effect on viability | –
N[C@@H](CS)C(=O)O [Cys, cysteine] | no protective effect | –
COc1cccc2c1C(=O)c1c(O)c3c(c(O)c1C2=O)C[C@@](O)(C(=O)CO)C[C@@H]3O[C@H]1C[C@H](N)[C@H](O)[C@H](C)O1 [Dox, Doxorubicin hydrochloride] | – | ≥ 2.5
